Measured values: ChEMBL document CHEMBL1139906, “Structure function analysis of benzalacetone synthase from Rheum palmatum” (Bioorg Med Chem Lett, 2007)

Legend:
Rheum palmatum = experiment: Activity of Rheum palmatum benzalacetone synthase S338V mutant
[1] = substrate: CC(C)(COP(=O)(O)OP(=O)(O)OC[C@H]1O[C@@H](n2cnc3c(N)ncnc32)[C@H](O)[C@@H]1OP(=O)(O)O)[C@@H](O)C(=O)NCCC(=O)NCCSC(=O)/C=C/c1ccc(O)cc1; experiment: Activity of Rheum palmatum benzalacetone synthase

Km (Rheum palmatum)	kcat (Rheum palmatum)	Molecule	Km [1]	kcat [1]
9.4 µM	0.053 s⁻¹	CC(C)(COP(=O)(O)OP(=O)(O)OC[C@H]1O[C@@H](n2cnc3c(N)ncnc32)[C@H](O)[C@@H]1OP(=O)(O)O)[C@@H](O)C(=O)NCCC(=O)NCCSC(=O)/C=C/c1ccc(O)cc1	–	–
–	–	Polyketide synthase BAS (Rheum palmatum), Q94FV7 (protein) MATEEMKKLATVMAIGTANPPNCYYQADFPDFYFRVTNSDHLINLKQKFKRLCENSRIEKRYLHVTEEILKENPNIAAYEATSLNVRHKMQVKGVAELGKEAALKAIKEWGQPKSKITHLIVCCLAGVDMPGADYQLTKLLDLDPSVKRFMFYHLGCYAGGTVLRLAKDIAENNKGARVLIVCSEMTTTCFRGPSETHLDSMIGQAILGDGAAAVIVGADPDLTVERPIFELVSTAQTIVPESHGAIEGHLLESGLSFHLYKTVPTLISNNIKTCLSDAFTPLNISDWNSLFWIAHPGGPAILDQVTAKVGLEKEKLKVTRQVLKDYGNMSSATVFFIMDEMRKKSLENGQATTGEGLEWGVLFGFGPGITVETVVLRSVPVIS	10 µM	0.0298 s⁻¹
